Experimental data: patent US12247004B2, “2-amino-N-(amino-oxo-aryl-lambda6-sulfanylidene)acetamide compounds and their therapeutic use” (Oxford Drug Design Limited, priority 2019, dated 2025)
≈ marks a conversion by molar mass, not a printed value. Counter-ions that a name gives are not always drawn. Like-named read-outs stand apart in the source and are kept apart here.

Columns and labels:
[1] = biological target: Leucyl-tRNA synthetase (LeuRS) (Escherichia coli (strain K12), UniProt P07813); assay: Leucyl-tRNA synthetase enzyme inhibition (AMP-Glo; single point % inhibition at 100 μM and IC50); type: biochemical
Description: Study 1—Enzyme Inhibition
The aminoacylation reaction catalyzed by aminoacyl-tRNA synthetases (aaRS) takes place in two steps. In the first step, aaRS activates its cognate amino acid with ATP; and in the second step the activated amino acid is loaded to its corresponding tRNA. This reaction can be summarized as follows: aaRS+aa+ATP=aaRS-aa-AMP+PPi aaRS-aa-AMP+tRNA=aa-tRNA+AMP+aaRS
wherein: aaRS, aminoacyl-tRNA synthetase; aa, amino acid; aaRS-aa-AMP, enzyme-bound to aminoacyl-adenylate; AMP, adenosine monophosphate; aa-tRNA, aminoacyl-tRNA, PPi, inorganic pyrophosphate.
a. Single Point Percentage Inhibition
The activity of the pathogenic aaRSs was monitored by measuring AMP production using the commercial kit AMP-Glo (Promega, Madison, USA).
Ligand stock solutions were prepared in 100% DMSO at 10 mM concentration. An assay buffer consisting of 100 mM Tris HCl pH 7.6, 40 mM MgCl, 20 mM KCl and 150 mM NaCl was prepared in dH2O.
Using the same enzymatic assay in a 384-well plate format, ten point concentration response curves were generated for each compound using a top concentration of 10 μM. The known inhibitor LeuAMS was used as a positive control for the LeuRS assay. 100% DMSO was used as a negative control. The IC50 was calculated based on non-linear regression analysis.

[2] = system: bacteria (ATCC reference strains); assay: Antibacterial activity, MIC by broth micro-dilution (CLSI)
[3] = E. coli LeuRS, read-out: Enzyme Inhibition - IC50, E. coli LeuRS
[4] = Acinetobacter baumannii, read-out: Antibacterial Activity (MIC), E = A. baumannii B1931
[5] = Escherichia coli, ATCC25922, read-out: Antibacterial Activity (MIC), A = E. coli ATCC 25922
[6] = Haemophilus influenzae, ATCC49247, read-out: Antibacterial Activity (MIC), F = H. influenzae ATCC 49247
[7] = Klebsiella pneumoniae, ATCC700603, read-out: Antibacterial Activity (MIC), C = K. pneumoniae ATCC 700603
[8] = Pseudomonas aeruginosa, ATCC27853, read-out: Antibacterial Activity (MIC), D = P. aeruginosa ATCC 27853

Chain of Leucyl-tRNA synthetase (LeuRS) (P07813 whole entry, looked up): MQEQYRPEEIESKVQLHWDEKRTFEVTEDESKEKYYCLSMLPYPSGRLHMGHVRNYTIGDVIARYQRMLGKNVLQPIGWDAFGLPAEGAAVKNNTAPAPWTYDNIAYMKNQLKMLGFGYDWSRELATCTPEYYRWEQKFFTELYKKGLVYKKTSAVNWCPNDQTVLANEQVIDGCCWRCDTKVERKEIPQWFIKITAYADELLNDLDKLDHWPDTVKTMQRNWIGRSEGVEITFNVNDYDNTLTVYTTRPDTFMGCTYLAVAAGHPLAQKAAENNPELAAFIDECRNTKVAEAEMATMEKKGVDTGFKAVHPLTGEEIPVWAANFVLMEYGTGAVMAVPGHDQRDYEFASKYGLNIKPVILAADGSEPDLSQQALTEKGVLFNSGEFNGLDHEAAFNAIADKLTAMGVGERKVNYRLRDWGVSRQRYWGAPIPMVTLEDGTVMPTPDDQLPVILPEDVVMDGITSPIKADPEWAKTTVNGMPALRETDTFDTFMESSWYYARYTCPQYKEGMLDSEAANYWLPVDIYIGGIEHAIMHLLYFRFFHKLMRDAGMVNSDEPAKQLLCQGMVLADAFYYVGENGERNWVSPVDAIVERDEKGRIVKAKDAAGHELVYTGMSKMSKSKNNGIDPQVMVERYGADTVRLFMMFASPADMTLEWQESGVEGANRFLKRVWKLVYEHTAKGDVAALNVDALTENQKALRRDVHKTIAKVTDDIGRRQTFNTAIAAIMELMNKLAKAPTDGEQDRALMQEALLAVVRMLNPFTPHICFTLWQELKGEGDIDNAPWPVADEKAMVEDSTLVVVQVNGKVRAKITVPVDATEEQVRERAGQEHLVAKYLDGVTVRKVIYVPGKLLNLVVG

CC(C)C[C@H](N)C(=O)N=[S@@](N)(=O)c1ccsc1Cl [ANASIA-092-2]
IC50 [1, 3]: 1970 nM

CC(C)C[C@H](N)C(=O)N=S(N)(=O)c1ccsc1C(N)=O (stereo partly drawn) [ANASIA-093, 3-(N′-(L-leucyl)sulfamidimidoyl)thiophene-2-carboxamide hydrochloride]
IC50 [1, 3]: 1330 nM

Cc1csc([S@](N)(=O)=NC(=O)[C@@H](N)CC(C)C)c1 [ANASIA-095-2]
IC50 [1, 3]: 1890 nM

CC(C)C[C@H](N)C(=O)N=S(N)(=O)c1cscc1C#N (stereo partly shown) [ANASIA-096]
IC50 [1, 3]: 700 nM

CC(C)C[C@H](N)C(=O)N=S(N)(=O)c1cscc1C(N)=O (stereo partly drawn) [ANASIA-097, 4-(N′-(L-leucyl)sulfamidimidoyl)thiophene-3-carboxamide 2,2,2-trifluoroacetate]
IC50 [1, 3]: 2160 nM

Cc1cc([S@](N)(=O)=NC(=O)[C@@H](N)CC(C)C)cs1 [ANASIA-098-2]
IC50 [1, 3]: 5140 nM

CC(C)C[C@H](N)C(=O)N=[S@@](N)(=O)c1csc(Cl)c1 [ANASIA-099-2]
IC50 [1, 3]: 511 nM

CC(C)C[C@H](N)C(=O)N=S(N)(=O)c1csc(Cl)c1 (stereo partly shown) [ANASIA-099]
MIC [2, 4]: 32 µg/mL (≈ 103 µM)
MIC [2, 5]: 1 µg/mL (≈ 3.23 µM)
MIC ([2]; Escherichia coli, BAA2469, read-out: Antibacterial Activity (MIC), G = E. coli BAA-2469): 2.83 µg/mL (≈ 9.13 µM)
MIC [2, 6]: 2 µg/mL (≈ 6.45 µM)
MIC [2, 7]: 16 µg/mL (≈ 51.6 µM)
MIC [2, 8]: > 64 µg/mL

CC(C)C[C@H](N)C(=O)N=[S@@](N)(=O)c1csc2ccsc12 [ANASIA-100-2]
IC50 [1, 3]: 945 nM

Cc1csc([S@](N)(=O)=NC(=O)[C@@H](N)CC(C)C)c1C [ANASIA-104-2]
IC50 [1, 3]: 3250 nM

C=Cc1ccsc1S(N)(=O)=NC(=O)[C@@H](N)CC(C)C (stereo partly drawn) [ANASIA-106, (2S)-2-amino-N-(amino(oxo)(3-vinylthiophen-2-yl)-λ6-sulfanylidene)-4-methylpentanamide hydrochloride]
IC50 [1, 3]: 897 nM

CC(C)C[C@H](N)C(=O)N=[S@@](N)(=O)c1scc(Br)c1Br [ANASIA-107-2]
IC50 [1, 3]: 1290 nM

COc1ccsc1[S@](N)(=O)=NC(=O)[C@@H](N)CC(C)C [ANASIA-108-2]
IC50 [1, 3]: 4310 nM

CC(C)C[C@H](N)C(=O)N=[S@](N)(=O)c1sccc1C(C)C [ANASIA-110-1]
IC50 [1]: 425 nM

CC(C)C[C@H](N)C(=O)N=[S@@](N)(=O)c1sccc1C(C)C [ANASIA-110-2]
IC50 [1, 3]: 6240 nM

CC(C)C[C@H](N)C(=O)N=[S@](N)(=O)c1ccc(C(C)C)s1 [ANASIA-111-1]
IC50 [1]: 779 nM

CC(C)C[C@H](N)C(=O)N=[S@](N)(=O)c1cccc(Oc2ccccc2)c1 [ANASIA-114-1]
IC50 [1]: 61.8 nM

CC(C)C[C@H](N)C(=O)N=[S@@](N)(=O)c1cccc(Oc2ccccc2)c1 [ANASIA-114-2]
IC50 [1, 3]: 982 nM

CCc1ccsc1[S@](N)(=O)=NC(=O)[C@@H](N)CC(C)C [ANASIA-119-2]
IC50 [1, 3]: 4650 nM

CC(C)C[C@H](N)C(=O)N=[S@@](N)(=O)c1sc(Cl)cc1Cl [ANASIA-120-2]
IC50 [1, 3]: 7600 nM

CC(C)C[C@H](N)C(=O)N=[S@@](N)(=O)c1cc(Cl)c(Cl)s1 [ANASIA-121-2]
IC50 [1, 3]: 1100 nM

Cc1c([S@](N)(=O)=NC(=O)[C@@H](N)CC(C)C)csc1Cl [ANASIA-122-2]
IC50 [1, 3]: 1930 nM

CC(C)C[C@H](N)C(=O)N=[S@@](N)(=O)c1cc(Cl)cs1 [ANASIA-124-2]
IC50 [1, 3]: 4800 nM

CC(C)C[C@H](N)C(=O)N=[S@@](N)(=O)c1csc(Cl)c1Cl [ANASIA-125-2]
IC50 [1, 3]: 1930 nM

CC[C@H]1OC(=O)[C@H](C)[C@@H](O[C@H]2C[C@@](C)(OC)[C@@H](O)[C@H](C)O2)[C@H](C)[C@@H](O[C@@H]2O[C@H](C)C[C@H](N(C)C)[C@H]2O)[C@](C)(O)C[C@@H](C)CN(C)[C@H](C)[C@@H](O)[C@]1(C)O [Azithromycin]
MIC [2, 4]: 16 µg/mL (≈ 21.4 µM)
MIC ([2]; Enterobacter cloacae, read-out: Antibacterial Activity (MIC), B = Enterobacter cloacae B1966): 16 µg/mL (≈ 21.4 µM)
MIC [2, 5]: 4 µg/mL (≈ 5.34 µM)
MIC [2, 6]: 2 µg/mL (≈ 2.67 µM)
MIC [2, 7]: 32 µg/mL (≈ 42.7 µM)
MIC [2, 8]: 32 µg/mL (≈ 42.7 µM)

CC(C)(O/N=C(\C(=O)N[C@@H]1C(=O)N2C(C(=O)[O-])=C(C[n+]3ccccc3)CS[C@H]12)c1csc(N)n1)C(=O)O [Ceftazidime]
Antibacterial Activity (MIC), E = A. baumannii B1931 [2]: 2 µg/mL
Antibacterial Activity (MIC), A = E. coli ATCC 25922 [2]: 0.25 µg/mL
Antibacterial Activity (MIC), G = E. coli BAA-2469 [2]: >64.0 µg/mL
Antibacterial Activity (MIC), B = Enterobacter cloacae B1966 [2]: 0.5 µg/mL
Antibacterial Activity (MIC), F = H. influenzae ATCC 49247 [2]: 16 µg/mL
Antibacterial Activity (MIC), C = K. pneumoniae ATCC 700603 [2]: >64 µg/mL
Antibacterial Activity (MIC), D = P. aeruginosa ATCC 27853 [2]: >64 µg/mL

C[C@@H](O)[C@H]1C(=O)N2C(C(=O)O)=C(S[C@@H]3CN[C@H](C(=O)N(C)C)C3)[C@H](C)[C@H]12 [Meropenem]
Antibacterial Activity (MIC), E = A. baumannii B1931 [2]: 8 µg/mL
Antibacterial Activity (MIC), A = E. coli ATCC 25922 [2]: 0.5 µg/mL
Antibacterial Activity (MIC), G = E. coli BAA-2469 [2]: >62.0 µg/mL
Antibacterial Activity (MIC), B = Enterobacter cloacae B1966 [2]: 0.5 µg/mL
Antibacterial Activity (MIC), F = H. influenzae ATCC 49247 [2]: 4 µg/mL
Antibacterial Activity (MIC), C = K. pneumoniae ATCC 700603 [2]: 0.5 µg/mL
Antibacterial Activity (MIC), D = P. aeruginosa ATCC 27853 [2]: >64 µg/mL
